{"source": "patent US20250281460A1", "about": "“PEGYLATED BILIRUBIN FOR THE TREATMENT OF […], OBESITY, FATTY LIVER DISEASE, CARDIOVASCULAR DISEASES AND TYPE II DIABETES” (The University of Toledo, priority 2019, published 2025)", "key": {"BAT cells [1]": {"system": "BAT cells", "assay": "SeaHorse analysis in murine BAT cell line (wild-type)", "format": "cell-based"}, "3T3-L1-WAT adipocytes": {"system": "3T3-L1-WAT adipocytes", "assay": "SeaHorse oxygen consumption rate in fully differentiated 3T3-L1-WAT adipocytes", "format": "cell-based, mouse", "settings": "50 μM biliverdin, 50 μM WY 14,463, 10 μM rosiglitazone", "description": "To compare the effects of bilirubin on the activation of PPARα or PPARγ on mitochondrial function, a SeaHorse XFe96 Analyzer was used to measure oxygen consumption rate (OCR) in fully differentiated 3T3-L1-WAT adipocytes treated with 50 μM biliverdin, 50 μM WY 14,463 (PPARα agonist), or 10 μM rosiglitazone (PPARγ-agonist). […]. Rosiglitazone, but not biliverdin or WY 14,643, enhanced the coupling efficiency. None of the ligands affected non-mitochondrial respiration, basal respiration, or proton leak.\nCellular respiration was quantified using the Seahorse Extracellular Flux Analyzer XF-96 (Agilent Technologies, Cedar Creek, TX). The Seahorse XF Cell Mito Stress Test Kit (Agilent Technologies, Cat #103015-100) was used for analysis of cellular respiration. BAT or 3T3-L1 cells were seeded on a XF96 cell culture microplate (Agilent 101085-004) at 20,000 cells per well. Cells were then differentiated as previously described for 9 days. […] The oxygen consumption rate (OCR) and extracellular acidification rate (ECAR) were used to quantify the cellular energy phenotype of the cells. After treatment, cells were washed twice with Seahorse Bioscience Assay Media (XF Base media with 25 mM Glucose, 2 mM […], and 1 mM Sodium Pyruvate) then incubated with the buffer for 1 hour in a non-CO2 incubator. The Seahorse Cartridge ports were loaded with […] of assay media with […] FCCP, 10 μM Oligomycin, 5 μM Rotenone/Antimycin A in different ports an hour before assay. […] The raw data and graphs were supplied as an Excel File or Graphpad Prizm file."}, "[2]": {"system": "BAT PPARα CRISPR KO cells", "assay": "Seahorse analysis in BAT PPARα CRISPR KO cells", "format": "cell-based, mouse", "settings": "both KO clones, 24 hours", "excerpt": "To further delineate the actions of bilirubin on BAT, CRISPR technology was developed to knockout (KO) PPARα and establish two null clone lines. […]. The function of the ligands was lost in both clones for the BAT PPARα CRISPR KO cells.\nCRISPR-Technology was employed in BAT as previously described to excise part of Exon 3 and Exon 4 of the PPARα gene to create a PPARα Knockout BAT cell line. Two sgRNAs with high efficacy and low off-target scores were identified on Exon 3 and 4 of the mouse PPARα gene using Benchling online software. The two Cas9 targets were separated by 9,465 bases. All of the off-targets to our PPARα sgRNA had 4 mismatches, of which at least 1-2 were within the seed region (up to 12 bases proximal to the protospacer adjacent motif (PAM) site) which reduces the likelihood of Cas9 off-target effects. The multiplex sgRNAs were generated using the PrecisionX Multiplex gRNA Cloning Kit according to manufacturer instructions. […] After 36 h of transfection, cells with the top 10% level of fluorescence were single-sorted into 96-well plates by fluorescent activated cell sorting. […]\nCellular respiration was quantified using the Seahorse Extracellular Flux Analyzer XF-96 (Agilent Technologies, Cedar Creek, TX). […] The oxygen consumption rate (OCR) and extracellular acidification rate (ECAR) were used to quantify the cellular energy phenotype of the cells. […]"}, "BAT cells [3]": {"system": "BAT cells", "assay": "Real-time PCR in differentiated BAT cells", "format": "cell-based, murine", "settings": "50 μM biliverdin, 50 μM WY14,463, 10 μM rosiglitazone, 24 hrs", "description": "Total RNA was extracted from mouse tissues using the miRNeasy Mini Kit (Qiagen). Total RNA was read on a NanoDrop 2000 spectrophotometer (Thermo Fisher Scientific, Wilmington, DE) and cDNA was synthesized using High Capacity cDNA Reverse Transcription Kit (Applied Biosystems). PCR amplification of the cDNA was performed by quantitative real-time PCR using TrueAmp SYBR Green qPCR SuperMix (Advance Bioscience). The thermocycling protocol consisted of 3 min at 95° C., 48 cycles of 15 sec at 95° C., 30 sec at 60° C., and based on primer size 0 to 30 sec at 72° C. and finished with a melting curve ranging from 60-95° C. to allow distinction of specific products. Normalization was performed in separate reactions with primers to 36B4."}, "human PPARα-LBD": {"target": "T1, human PPARα-LBD (Homo sapiens, UniProt Q07869)", "T1 construct": "purchased Invitrogen PV4692", "T1 sequence (Q07869 239-466 limits assumed)": "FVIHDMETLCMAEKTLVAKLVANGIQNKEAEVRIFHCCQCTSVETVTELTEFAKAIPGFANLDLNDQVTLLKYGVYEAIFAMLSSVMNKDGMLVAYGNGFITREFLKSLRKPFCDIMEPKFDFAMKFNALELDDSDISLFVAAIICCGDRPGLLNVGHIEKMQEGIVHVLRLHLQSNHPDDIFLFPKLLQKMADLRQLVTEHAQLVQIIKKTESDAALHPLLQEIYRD", "assay": "MARCONI / PamStation nuclear hormone receptor coregulator assay", "format": "binding", "settings": "50 μM", "description": "The molecular determinants that dictate specificity and selectivity in PPARα-coregulator interactions are largely unknown. […] To determine if bilirubin binds to the ligand binding domain (LBD) of PPARα to cause recruitment of a specific set of co-regulator proteins, the Microarray Assay for Realtime Coregulator-Nuclear Receptor Interaction (MARCONI) technology was used.\nIncubation was performed at 37° C. for 5 minutes in 1.5 ml microtubes prior to placement on respective array for analysis in a PamStation96 (Pamgene International). PPARα binding was reflected via fluorescent signals recorded through the Pamstation96. The signals were transformed into tiff images and binding capacity was quantified using BioNavigator software (Pamgene International)."}}, "note": "“Also recorded” adds a separate entry of the source."}
{"smiles": "Cc1cccc(Nc2cc(Cl)nc(SCC(=O)O)n2)c1C", "note": "[WY 14,643, WY-14,643]", "values": [{"measurement": "proton leak", "setting": "BAT cells [1]; BAT cells", "result": "stimulated"}, {"measurement": "ATP production", "setting": "BAT cells [1]; WT BAT cells, 24 hours", "result": "increased; also recorded: stimulated"}, {"measurement": "basal respiration (OCR)", "setting": "BAT cells [1]; WT BAT cells, 24 hours", "result": "increased"}, {"measurement": "maximum respiration (OCR)", "setting": "BAT cells [1]; WT BAT cells, 24 hours", "result": "increased; also recorded: significantly higher"}, {"measurement": "ATP production", "setting": "3T3-L1-WAT adipocytes", "result": "not observed"}, {"measurement": "mitochondrial OCR for maximum respiration", "setting": "3T3-L1-WAT adipocytes", "result": "significantly increased"}, {"measurement": "function of the ligands on mitochondrial function (OCR)", "setting": "[2]", "result": "lost"}, {"measurement": "Adrb3 mRNA", "setting": "BAT cells [3]", "result": "significant increase"}, {"measurement": "Ucp1 mRNA", "setting": "BAT cells [3]", "result": "significant increase"}]}
{"smiles": "C=CC1=C(C)/C(=C/c2[nH]c(Cc3[nH]c(/C=C4\\NC(=O)C(C)=C4C=C)c(C)c3CCC(=O)O)c(CCC(=O)O)c2C)NC1=O", "note": "[bilirubin, Bilirubin]", "values": [{"measurement": "binding to the human PPARα-LBD", "setting": "human PPARα-LBD", "result": "direct binding"}, {"measurement": "binding of the human PPARα LBD to coregulator motifs", "setting": "human PPARα-LBD; 154 coregulator motifs", "result": "mitigate binding"}, {"measurement": "coregulators with reduced interactions with the human PPARα LBD", "setting": "human PPARα-LBD; subtracted from the vehicle", "result": "PRGR (LXXL 102-124), PRGC1 (LXXL 134-154), and PELP1 (LXXL 446-468)"}, {"measurement": "highest interacting coregulators recruited to PPARα-LBD", "setting": "human PPARα-LBD; subtracted from the vehicle", "result": "MAPE (LXXL 249-271), WIPII (LXXL 313-335), CNOT1 (LXXL 2083-2105), PELP1 (LXXL 571-593), and others"}]}
